Experiments:
[1] = tested on: rats; test: Rat forced swimming test (immobility time); type: in vivo, rat (male Wistar); settings: for Immobility Time (mean ± S.E.): N=10; for Effect on the immobility time in the forced swimming test (in words): Dunnett's test vs control
Protocol: (§1) Particularly the forced swimming test has been used most widely in the evaluation of antidepressant drugs in animals. Reportedly the immobility time-shortening activity of an antidepressant drug as assayed by this test is highly correlated with the clinical efficacy of the drug in man (F. Borsini and A. Meli, 1988).
Five-week old male Wistar rats were used. A cylindrical vessel measuring 18 cm in diameter and 40 cm deep was filled with 25° C. of water to the level of 17 cm from the bottom, and the rat was forced to swim in the water for 15 minutes (Session I). After 24 hours, the rat was put again in the vessel for 5 minutes and the duration of time the rat remained motionless without swimming was determined (Session II). The drug was orally administered twice, viz. at completion of Session I and 1 hr before the start of Session II. The drug was suspended in 0.5% methylcellulose (MC) solution for the administration. The control group was orally given the same volume of 0.5% MC solution. Compound No. 2 was used as the test drug. As reference drugs, desipramine, which is a representative antidepressant, and aniracetam and idebenone, both of which are enhancers of cerebral circulation and metabolism, were used. The statistical significance of between groups differences was analyzed by Dunnett's test.

[2] = tested on: rats; test: Rat learned helplessness test (escape failures); type: in vivo; settings: for No. of escape failures (mean ± S.E.): oral once daily for 10 days, ECS group, 40 avoidance tasks, N=10
Text: as §1
The rat was orally administered with the drug once daily for 10 consecutive days. On days 8-10 of administration, the rat was placed in a shuttle box in which it received 100 unescapable electroconvulsive shocks (ECS) daily. The day after the last ECS session, the active avoidance task was given 40 times and the number of failures to escape was recorded. Compound No. 2 was used as the test drug. As a reference drug, desipramine was used.

[3] = Acute toxicity testing, oral, mice; design: species or system mouse (male ddy-strain); settings: mouse, in vivo, male ddy mice, 2 weeks observation, probit method
Protocol: (1) Groups of five male ddy-strain mice aged 6-7 weeks were used. The animals were fasted for 16-18 hours (from the previous day) and then orally given the test compound. The LD50 values were calculated by the probit method based on the mortality observed within the succeeding period of 2 weeks.

[4] = Acute toxicity testing, oral, rats; design: species or system rat (male SD-strain); settings: rat, in vivo, male SD rats, two-week observation, probit method
Protocol: (2) Groups of five male SD-strain rats weighing 280-360 g were used. The animals were fasted for 16-18 hours (from the previous day) and then orally given the test compound. The LD50 values were calculated by the probit method based on the mortality observed within the succeeding two-week period.

[5] = 1 mg/kg, oral twice, *p < 0.01 vs control
[6] = 3 mg/kg, oral twice, *p < 0.01 vs control
[7] = 10 mg/kg, oral twice, *p < 0.01 vs control
[8] = 30 mg/kg, oral twice, *p < 0.01 vs control
[9] = 100 mg/kg, oral twice, *p < 0.01 vs control

| SMILES | Immobility Time (mean ± S.E.) ([1]; 0.3 mg/kg, oral twice (after Session I and 1 hr before Session II)) | Immobility Time (mean ± S.E.) [1, 5] | Immobility Time (mean ± S.E.) [1, 6] | Immobility Time (mean ± S.E.) [1, 7] | Immobility Time (mean ± S.E.) [1, 8] | Immobility Time (mean ± S.E.) [1, 9] | No. of escape failures (mean ± S.E.) ([2]; 1 mg/kg) | No. of escape failures (mean ± S.E.) ([2]; 3 mg/kg) | No. of escape failures (mean ± S.E.) ([2]; 10 mg/kg, *p < 0.01) | LD50 at 336 h [3] | LD50 at 336 h [4] | Effect on the immobility time in the forced swimming test (in words) ([1]; oral twice) | Immobility Time (mean ± S.E.) ([1]; 50 mg/kg, oral twice, *p < 0.01 vs control) | Effect on failure to escape in the learned helplessness test (in words) ([2]; 10 mg/kg, oral) | Immobility Time (mean ± S.E.) ([1]; 300 mg/kg, oral twice) |
| --- | --- | --- | --- | --- | --- | --- | --- | --- | --- | --- | --- | --- | --- | --- | --- |
| O=C1CC[C@H](C(=O)N2CCCCC2)N1 [Compound No. 2, D-(+)-1-(2-Pyrrolidone-5-carbonyl)piperidine] | 153.0 ± 17.2 s | 119.4 ± 11.0 s | 82.2 ± 18.1 s | 93.7 ± 13.4 s | 61.3 ± 8.5 s | 53.8 ± 12.6 s | 20.20 ± 4.89 | 13.60 ± 4.15 | 0.90 ± 0.69 | 4160 mg/kg | ≥ 5000 mg/kg | – | – | – | – |
| COc1ccc(C(=O)N2CCCC2=O)cc1 [aniracetam] | – | – | – | 168.9 ± 18.0 s | 162.6 ± 14.5 s | 175.6 ± 13.8 s | – | – | – | – | – | did not influence the immobility time | – | – | – |
| CNCCCN1c2ccccc2CCc2ccccc21 [desipramine] | – | 134.2 ± 20.8 s | 83.2 ± 16.1 s | 54.7 ± 15.8 s | 34.8 ± 12.2 s | – | 32.10 ± 2.66 | 19.00 ± 5.65 | 0.60 ± 0.27 | – | – | shortened the immobility time significantly and dose dependently at 3 mg/kg and higher doses | 41.8 ± 9.8 s | significant inhibitory effects on this failure to escape at 10 mg/kg | – |
| COC1=C(OC)C(=O)C(CCCCCCCCCCO)=C(C)C1=O [idebenone] | – | – | – | – | 178.2 ± 17.6 s | 154.4 ± 17.4 s | – | – | – | – | – | did not influence the immobility time | – | – | 180.9 ± 13.9 s |

Source: US5652249A, “Method of treating depression” (Nippon Shinyaku Co., Inc., priority 1993, dated 1997)
